# Data reported in publication PMC2975748 (Journal of molecular and cellular cardiology, 2010).
# Biological target: cardiac troponin C (cTnC), regulatory N-domain (cNTnC) (Homo sapiens, UniProt P19429+P63316)
# Experiment: 1H, […]-HSQC NMR titration
# Format: binding
# Chain of cardiac troponin C (cTnC), regulatory N-domain (cNTnC) (P63316 1-89): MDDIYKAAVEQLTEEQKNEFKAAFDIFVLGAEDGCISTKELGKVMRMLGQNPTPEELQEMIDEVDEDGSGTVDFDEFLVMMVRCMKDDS
# Chain of cardiac troponin C (cTnC), regulatory N-domain (cNTnC) (P19429 145-164): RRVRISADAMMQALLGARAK
smiles,measurement,value
"O=C(O)Cc1ccc(-c2ccc(F)cc2F)cc1 [dfbp, 2’ ,4’-difluoro(1,1’-biphenyl)-4-yl acetic acid]",Kd,2.82 ± 0.48 mM
